Columns and labels:
Details in all cases: incubation time: 72 h
[1] = test system: BT-474; experiment: normalised response (% of control), CellTox Green; higher = less cell death (100 = DMSO, 0 = benzethonium chloride kill control)
Procedure, shortened: (§1)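 Two readouts were taken after 72 h: CellTox Green fluorescence (485/520 nm) first, then CellTiter-Glo luminescence after 10 min at room temperature. Breast cancer cell lines had been seeded as 20 µl suspension into 384-well plates holding compound at 5 concentrations in 10-fold steps across a compound-specific 10,000-fold range. Each value is a normalised signal at a single concentration, with plates scaled to 0.1 % DMSO (100) and a positive kill control (0).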

[2] = test system: BT-549; experiment: as above
Procedure, shortened: as §1

[3] = test system: CAL-120; experiment: as above
Procedure, shortened: as §1

[4] = test system: CAL-148; experiment: as above
Procedure, shortened: as §1

[5] = test system: CAL-51; experiment: as above
Procedure, shortened: as §1

[6] = test system: CAL-85-1; experiment: as above
Procedure, shortened: as §1

[7] = test system: DU-4475; experiment: as above
Procedure, shortened: as §1

[8] = test system: HCC1143; experiment: as above
Procedure, shortened: as §1

[9] = test system: HCC1599; experiment: as above
Procedure, shortened: as §1

[10] = test system: HCC1937; experiment: as above
Procedure, shortened: as §1

[11] = test system: HDQ-P1; experiment: as above
Procedure, shortened: as §1

[12] = test system: Hs578T; experiment: as above
Procedure, shortened: as §1

[13] = test system: MCF-10A; experiment: as above
Procedure, shortened: as §1

[14] = test system: MDA-MB-231; experiment: as above
Procedure, shortened: as §1

[15] = test system: MDA-MB-436; experiment: as above
Procedure, shortened: as §1

[16] = test system: MDA-MB-453; experiment: as above
Procedure, shortened: as §1

[17] = test system: MDA-MB-468; experiment: as above
Procedure, shortened: as §1

[18] = test system: MFM-223; experiment: as above
Procedure, shortened: as §1

[19] = test system: BT-474; experiment: normalised response (% of control), CellTiter-Glo; higher = more viable cells (100 = DMSO, 0 = benzethonium chloride kill control)
Description: (§2)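 DSRT, 72 h incubation, CellTox Green / CellTiter-Glo readout. Signal is normalised to DMSO and benzethonium chloride controls. Value is the normalised response at the highest dose.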

[20] = test system: BT-549; experiment: as above
Description: as §2

[21] = test system: CAL-120; experiment: as above
Description: as §2

[22] = test system: CAL-148; experiment: as above
Description: as §2

[23] = test system: CAL-51; experiment: as above
Description: as §2

[24] = test system: CAL-85-1; experiment: as above
Description: as §2

[25] = test system: DU-4475; experiment: as above
Description: as §2

[26] = test system: HCC1143; experiment: as above
Description: as §2

[27] = test system: HCC1599; experiment: as above
Description: as §2

[28] = test system: HCC1937; experiment: as above
Description: as §2

[29] = test system: HDQ-P1; experiment: as above
Description: as §2

[30] = test system: Hs578T; experiment: as above
Description: as §2

[31] = test system: MCF-10A; experiment: as above
Description: as §2

[32] = test system: MDA-MB-231; experiment: as above
Description: as §2

[33] = test system: MDA-MB-436; experiment: as above
Description: as §2

[34] = test system: MDA-MB-453; experiment: as above
Description: as §2

[35] = test system: MDA-MB-468; experiment: as above
Description: as §2

[36] = test system: MFM-223; experiment: as above
Description: as §2

[37] = test system: SK-BR-3; experiment: as above
Description: as §2

SMILES	normalised response [1] [%]	normalised response [2] [%]	normalised response [3] [%]	normalised response [4] [%]	normalised response [5] [%]	normalised response [6] [%]	normalised response [7] [%]	normalised response [8] [%]	normalised response [9] [%]	normalised response [10] [%]	normalised response [11] [%]	normalised response [12] [%]	normalised response [13] [%]	normalised response [14] [%]	normalised response [15] [%]	normalised response [16] [%]	normalised response [17] [%]	normalised response [18] [%]	normalised response [19] [%]	normalised response [20] [%]	normalised response [21] [%]	normalised response [22] [%]	normalised response [23] [%]	normalised response [24] [%]	normalised response [25] [%]	normalised response [26] [%]	normalised response [27] [%]	normalised response [28] [%]	normalised response [29] [%]	normalised response [30] [%]	normalised response [31] [%]	normalised response [32] [%]	normalised response [33] [%]	normalised response [34] [%]	normalised response [35] [%]	normalised response [36] [%]	normalised response [37] [%]
CCCc1cc(C)[nH]c(=O)c1CNC(=O)c1cc(-c2ccnc(N3CCN(C)CC3)c2)cc2c1cnn2C(C)C [GSK343] (10000 nM)	4.03	97.6	78.5	85.5	106	56.8	92.7	68.4	73.6	101	80	79.2	90.1	-68.4	95.2	-8.4	114	77.3	11.3	77.1	79.4	62.8	120	30.2	77.8	68.9	22.8	100	66.7	74.4	97.5	7.92	53.9	13.7	11.1	41.8	11.3
Cc1c(C(=O)Nc2ccc(N3C[C@@H](C)O[C@@H](C)C3)nc2)cccc1-c1ccc(OC(F)(F)F)cc1 [Erismodegib] (10000 nM)	93	130	101		99.8	85.3	108	109	118	122	111	80.5	101	107	79	63.9	171	105	73.5	81.8	97.6	100	102	91.8	99.6	89.4	91.1	90.2	85.3	94.8	92	79	78.6	75.5	74.7	80.8	81

Source: the supplement of paper PMC4862054
